How the values were obtained:
MAPKAPK2 = test: Inhibition of MAPKAPK2 in GFP-MAPKAPk2_BHK cell model (nuclear translocation); assay type: cell-based; conditions: GFP-MAPKAPk2_BHK cells
Protocol: In order to study p38α inhibition in a cell system, we investigated the ability of all compounds to inhibit the phosphorylation of mitogen-activated protein-kinase-activated protein kinase 2 (MAPKAPK2). Each compound was prepared at […] concentrations (1, 3, 10 and 30 nM, 0.1 and 0.3 μM), and the percentages of inhibition were calculated from the numbers of cells after treatment with the different compounds.
GFP-MAPKAPk2_BHK cells were cultured in 96-well plates (2.0 × 10^4/100 μL/well) containing 10% heat-inactivated foetal bovine serum (FBS) and 1 mg/mL G418 at 37 °C in humidified air containing 5% CO2 for 18–24 h. The cells were washed with nutrient solution (100 μL/well) and changed to the compound liquid (100 μL/well). Experiments were set up with the control, and the compound was repeated at each concentration in three wells. The cells were cultured in 96-well plates at 37 °C in humidified air containing 5% CO2 for 90 min. The cells were washed with the dye solution (20 μL/well), and the dyed cells were held for 1 hour at room temperature in the dye liquid. Analysis of nuclear translocation and calculation of the ability of the compounds to inhibit nuclear translocation was performed using the IN Cell Analyzer 1000 Nuclear Trafficking Analysis Module System (GE, Madison, WI, USA). The cultured cells were treated with the obtained compounds in […] concentration grads (1, 3, 10 and 30 nM, 0.1 and 0.3 μM). The inhibitory percentage can be calculated using the amounts of cells after the disposition of the different compounds.

MAPK14/p38α = MAPK14/p38α (Homo sapiens, UniProt Q16539); test: p38α MAP kinase activity, phosphorylation of ATF-2 (TR-FRET); assay type: biochemical; conditions: enzyme
Protocol: Kinase reaction buffer was composed of 50 mM HEPES (pH 7.5), 0.01% BRIJ-35, 10 mM MgCl2 and 1 mM EGTA. Prepared MAPK14/p38α in 1× kinase buffer with concentration at 500 ng/mL. A 2-fold serial dilution was performed using 1× kinase buffer from 500 ng/mL using 16 dose points. […] The reaction was started by adding 5 μL of the GFP-ATF2(19–96) substrate and ATP solution into each well of the assay plate. The final starting concentration of MAPK14/p38α was 250ng/ml, and the final GFP-ATF2 and ATP concentrations were 0.4 μM and 90 μM, respectively. The assay plate was sealed and incubated for 1 hour at room temperature (RT). Antibody solution (1 mL) was prepared from 20 mM EDTA and 4 nM Tb-antipATF2 (pThr71) antibody in TR-FRET dilution buffer. Antibody solution (10 μL) was added into each well of the assay plate and mixed gently. The final EDTA concentration was 10 mM, and the final Tb-antipATF2 (pThr71) concentration was 2 nM. The assay plate was sealed and incubated for 30 minutes at RT.
Inhibitor in 0.5% DMSO (2 μL/well) at 5-fold the final assay concentration was added into a 384-well assay plate. […] MAPK14/p38α (4 μL/well) was added to each well of the 384-well assay plate and incubated for 15 min at RT. To start the reaction, substrate GFP-ATF2 (19–96) and ATP (4 μL/well) were added into kinase reaction buffer. […] The resulting TR-FRET emission ratio was plotted against the concentration of inhibitor, and the data fitted to a sigmoidal dose-response curve with a variable slope. The IC50 concentration was calculated from the curve.

Chain of MAPK14/p38α (Q16539 whole entry): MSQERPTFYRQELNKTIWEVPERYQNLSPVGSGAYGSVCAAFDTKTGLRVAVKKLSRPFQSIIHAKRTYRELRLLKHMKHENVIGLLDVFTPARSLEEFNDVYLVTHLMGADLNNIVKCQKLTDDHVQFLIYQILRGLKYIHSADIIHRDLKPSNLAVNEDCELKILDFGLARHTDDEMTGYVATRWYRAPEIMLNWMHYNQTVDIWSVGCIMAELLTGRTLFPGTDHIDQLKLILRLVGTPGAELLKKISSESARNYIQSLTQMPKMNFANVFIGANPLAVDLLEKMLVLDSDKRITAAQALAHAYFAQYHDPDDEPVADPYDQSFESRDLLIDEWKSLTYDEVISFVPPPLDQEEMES

Compound	IC50 (MAPKAPK2; bound given in µM)	also measured
CC(C)(C)c1cc(NC(=O)NCc2cc(F)ccc2Oc2ccc3[nH]ncc3c2)n(-c2ccc([N+](=O)[O-])cc2)n1 [25i, 1-(2-((1H-Indazol-5-yl)oxy)-5-fluorobenzyl)-3-(3-(tert-butyl)-1-(4-nitrophenyl)-1H-pyrazol-5-yl)urea]	–	IC50 (MAPKAPK2): 0.00383 ± 0.00112 µM; IC50 (MAPK14/p38α; GFP-ATF2 substrate, 90 μM ATP): 0.00143 ± 8e-05 µM
Cc1ccc(-n2nc(C(C)(C)C)cc2NC(=O)NCc2cc(F)ccc2Oc2ccc3[nH]ncc3c2)cc1 [25j, 1-(2-((1H-Indazol-5-yl)oxy)-5-fluorobenzyl)-3-(3-(tert-butyl)-1-(p-tolyl)-1H-pyrazol-5-yl)urea]	–	IC50 (MAPKAPK2): 0.00361 ± 0.00243 µM; IC50 (MAPK14/p38α; GFP-ATF2 substrate, 90 μM ATP): 0.00153 ± 7e-05 µM
Cc1ccc(-n2nc(C(C)(C)C)cc2NC(=O)Nc2ccc(Oc3ccc4[nH]ncc4c3)c3c2OCC=C3)cc1 [26a, 1-(5-((1H-Indazol-5-yl)oxy)-2H-chromen-8-yl)-3-(3-(tert-butyl)-1-(p-tolyl)-1H-pyrazol-5-yl)urea]	–	IC50 (MAPKAPK2): 0.0607 ± 0.00231 µM
CC(C)(C)c1cc(NC(=O)Nc2ccc(Oc3ccc4[nH]ncc4c3)c3c2OCC=C3)n(-c2ccccc2)n1 [26b, 1-(5-((1H-Indazol-5-yl)oxy)-2H-chromen-8-yl)-3-(3-(tert-butyl)-1-phenyl-1H-pyrazol-5-yl)urea]	–	IC50 (MAPKAPK2): 0.0223 ± 0.00188 µM; IC50 (MAPK14/p38α; GFP-ATF2 substrate, 90 μM ATP): 0.00514 ± 0.00033 µM
CC(C)(C)c1cc(NC(=O)Nc2ccc(Oc3ccc4[nH]ncc4c3)c3c2OCC=C3)n(-c2ccc(S(N)(=O)=O)cc2)n1 [26c, 4-(5-(3-(5-((1H-Indazol-5-yl)oxy)-2H-chromen-8-yl)ureido)-3-(tert-butyl)-1H-pyrazol-1-yl)benzenesulfonamide]	–	IC50 (MAPKAPK2): 0.2457 ± 0.00209 µM
COc1ccc(-n2nc(C(C)(C)C)cc2NC(=O)Nc2ccc(Oc3ccc4[nH]ncc4c3)c3c2OCC=C3)cc1 [26d, 1-(5-((1H-Indazol-5-yl)oxy)-2H-chromen-8-yl)-3-(3-(tert-butyl)-1-(4-methoxyphenyl)-1H-pyrazol-5-yl)urea]	–	IC50 (MAPKAPK2): 0.0698 ± 0.00208 µM
CC(C)(C)c1cc(NC(=O)Nc2ccc(Oc3ccc4[nH]ncc4c3)c3c2OCC=C3)n(-c2ccc(F)cc2)n1 [26e, 1-(5-((1H-Indazol-5-yl)oxy)-2H-chromen-8-yl)-3-(3-(tert-butyl)-1-(4-fluorophenyl)-1H-pyrazol-5-yl)urea]	–	IC50 (MAPKAPK2): 0.038 ± 0.00124 µM; IC50 (MAPK14/p38α; GFP-ATF2 substrate, 90 μM ATP): 0.00596 ± 1e-05 µM
CC(C)(C)c1cc(NC(=O)Nc2ccc(Oc3ccc4[nH]ncc4c3)c3c2OCC=C3)n(-c2ccc([N+](=O)[O-])cc2)n1 [26f, 1-(5-((1H-Indazol-5-yl)oxy)-2H-chromen-8-yl)-3-(3-(tert-butyl)-1-(4-nitrophenyl)-1H-pyrazol-5-yl)urea]	–	IC50 (MAPKAPK2): 0.0412 ± 0.00146 µM
Cc1ccc(-n2nc(C(C)(C)C)cc2NC(=O)Nc2ccccc2OCCN2CCOCC2)cc1 [28a, 1-(3-(tert-Butyl)-1-(p-tolyl)-1H-pyrazol-5-yl)-3-(2-(2-morpholinoethoxy)phenyl)urea]	> 10 µM	IC50 (MAPK14/p38α; bound given in µM): > 10 µM
CC(C)(C)c1cc(NC(=O)Nc2ccccc2OCCN2CCOCC2)n(-c2ccccc2)n1 [28b, 1-(3-(tert-Butyl)-1-phenyl-1H-pyrazol-5-yl)-3-(2-(2-morpholinoethoxy)phenyl)urea]	> 10 µM	IC50 (MAPK14/p38α; bound given in µM): > 10 µM
Cc1cccc(-n2nc(C(C)(C)C)cc2NC(=O)Nc2ccccc2OCCN2CCOCC2)c1 [28c, 1-(3-(tert-Butyl)-1-(m-tolyl)-1H-pyrazol-5-yl)-3-(2-(2-morpholinoethoxy)phenyl)urea]	> 10 µM	–
COc1ccc(-n2nc(C(C)(C)C)cc2NC(=O)Nc2ccccc2OCCN2CCOCC2)cc1 [28d, 1-(3-(tert-Butyl)-1-(4-methoxyphenyl)-1H-pyrazol-5-yl)-3-(2-(2-morpholinoethoxy)phenyl)urea]	> 10 µM	–
CC(C)(C)c1cc(NC(=O)Nc2ccccc2OCCN2CCOCC2)n(-c2ccc(Cl)cc2)n1 [28e, 1-(3-(tert-Butyl)-1-(4-chlorophenyl)-1H-pyrazol-5-yl)-3-(2-(2-morpholinoethoxy)phenyl)urea]	> 10 µM	–
CC(C)(C)c1cc(NC(=O)Nc2ccccc2OCCN2CCOCC2)n(-c2ccc(Br)cc2)n1 [28f, 1-(1-(4-Bromophenyl)-3-(tert-butyl)-1H-pyrazol-5-yl)-3-(2-(2-morpholinoethoxy)phenyl)urea]	> 10 µM	–
CC(C)(C)c1cc(NC(=O)Nc2ccccc2OCCN2CCOCC2)n(-c2ccc(F)cc2)n1 [28g, 1-(3-(tert-Butyl)-1-(4-fluorophenyl)-1H-pyrazol-5-yl)-3-(2-(2-morpholinoethoxy)phenyl)urea]	> 10 µM	–
CC(C)(C)c1cc(NC(=O)Nc2ccccc2OCCN2CCOCC2)n(-c2ccc([N+](=O)[O-])cc2)n1 [28h, 1-(3-(tert-Butyl)-1-(4-nitrophenyl)-1H-pyrazol-5-yl)-3-(2-(2-morpholinoethoxy)phenyl)urea]	> 10 µM	–
CC(C)(C)c1cc(NC(=O)Nc2ccccc2OCCN2CCOCC2)n(-c2ccc(S(N)(=O)=O)cc2)n1 [28i, 4-(3-(tert-Butyl)-5-(3-(2-(2-morpholinoethoxy)phenyl)ureido)-1H-pyrazol-1-yl)benzenesulfonamide]	> 10 µM	–
Cc1cccc(-n2nc(C(C)(C)C)cc2NC(=O)Nc2ccccc2Oc2ccc3[nH]ncc3c2)c1 [29c, 1-(2-((1H-Indazol-5-yl)oxy)phenyl)-3-(3-(tert-butyl)-1-(m-tolyl)-1H-pyrazol-5-yl)urea]	> 10 µM	–
COc1ccc(-n2nc(C(C)(C)C)cc2NC(=O)Nc2ccccc2Oc2ccc3[nH]ncc3c2)cc1 [29d, 1-(2-((1H-Indazol-5-yl)oxy)phenyl)-3-(3-(tert-butyl)-1-(4-methoxyphenyl)-1H-pyrazol-5-yl)urea]	> 10 µM	–
CC(C)(C)c1cc(NC(=O)Nc2ccccc2Oc2ccc3[nH]ncc3c2)n(-c2ccc(Cl)cc2)n1 [29e, 1-(2-((1H-Indazol-5-yl)oxy)phenyl)-3-(3-(tert-butyl)-1-(4-chlorophenyl)-1H-pyrazol-5-yl)urea]	> 10 µM	–
CC(C)(C)c1cc(NC(=O)Nc2ccccc2Oc2ccc3[nH]ncc3c2)n(-c2ccc(Br)cc2)n1 [29f, 1-(2-((1H-Indazol-5-yl)oxy)phenyl)-3-(1-(4-bromophenyl)-3-(tert-butyl)-1H-pyrazol-5-yl)urea]	> 10 µM	–
CC(C)(C)c1cc(NC(=O)Nc2ccccc2Oc2ccc3[nH]ncc3c2)n(-c2ccc(F)cc2)n1 [29g, 1-(2-((1H-Indazol-5-yl)oxy)phenyl)-3-(3-(tert-butyl)-1-(4-fluorophenyl)-1H-pyrazol-5-yl)urea]	> 10 µM	–
CC(C)(C)c1cc(NC(=O)Nc2ccccc2Oc2ccc3[nH]ncc3c2)n(-c2ccc([N+](=O)[O-])cc2)n1 [29h, 1-(2-((1H-Indazol-5-yl)oxy)phenyl)-3-(3-(tert-butyl)-1-(4-nitrophenyl)-1H-pyrazol-5-yl)urea]	> 10 µM	–
CC(C)(C)c1cc(NC(=O)Nc2ccccc2Oc2ccc3[nH]ncc3c2)n(-c2ccc(S(N)(=O)=O)cc2)n1 [29i, 4-(5-(3-(2-((1H-Indazol-5-yl)oxy)phenyl)ureido)-3-(tert-butyl)-1H-pyrazol-1-yl)benzenesulfonamide]	> 10 µM	–
CC(C)(C)c1cc(NC(=O)NCc2ccccc2OCCN2CCOCC2)n(-c2ccc(Cl)cc2)n1 [30a, 1-(3-(tert-Butyl)-1-(4-chlorophenyl)-1H-pyrazol-5-yl)-3-(2-(2-morpholinoethoxy)benzyl)urea]	> 3 µM	–
Cc1ccc(-n2nc(C(C)(C)C)cc2NC(=O)NCc2ccccc2OCCN2CCOCC2)cc1 [30b, 1-(3-(tert-Butyl)-1-(p-tolyl)-1H-pyrazol-5-yl)-3-(2-(2-morpholinoethoxy)benzyl)urea]	> 3 µM	–
CC(C)(C)c1cc(NC(=O)NCc2ccccc2OCCN2CCOCC2)n(-c2ccc(S(N)(=O)=O)cc2)n1 [30c, 4-(3-(tert-Butyl)-5-(3-(2-(2-morpholinoethoxy)benzyl)ureido)-1H-pyrazol-1-yl)benzenesulfonamide]	> 3 µM	–
CC(C)(C)c1cc(NC(=O)NCc2ccccc2OCCN2CCOCC2)n(-c2ccccc2)n1 [30d, 1-(3-(tert-Butyl)-1-phenyl-1H-pyrazol-5-yl)-3-(2-(2-morpholinoethoxy)benzyl)urea]	> 3 µM	–

From publication PMC6272846, “Synthesis and p38 Inhibitory Activity of Some Novel Substituted N,N′-Diarylurea Derivatives” (Molecules, 2016)
